One assay concerns the target human AT2R fused to Cb23 (Homo sapiens, UniProt P50052). Nature of the assay: Radioligand binding assay, displacement of 125I-[Sar1, Ile8]-Angiotensin II, hAT2R Cb23. The following applies: displacement of 125I-[Sar1, Ile8]-Angiotensin II, human AT2R fused to Cb23, HEK-293 cell membrane preparations; read-out: Binding affinity on hAT2R_Cb23 IC50. The method in brief:
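Membranes from HEK-293 cells expressing human AT2R fused to Cb23 were incubated with 0.05 nM 125I-[Sar1, Ile8]-Angiotensin II in 100 μL buffer (50 mM Tris, 5 mM MgCl2, 1 mM EDTA, 0.1% BSA, pH 7.4) for one hour at 25° C. Ligands were tested as eight-point dose-response curves in duplicate, with C21 and Angiotensin II as references.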
A general note: In a radioligand displacement assay an active substance lowers the binding of a labelled ligand.

For another assay, the target named is human AT1R (Homo sapiens (Human), UniProt P30556). In words: Counterscreen radioligand binding assay, displacement of 125I-[Sar1, Ile8]-Angiotensin II, hAT1R WT. The following applies: for inhibition at 1 µM: read-out: % Displaced radioligand at 1 μM; for inhibition at 10 µM: read-out: % Displaced radioligand at 10 μM; for IC50: HEK-293 cell membranes, read-out: Binding affinity On hAT1R IC50. The method in brief:
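Compounds displaced 0.05 nM 125I-[Sar1, Ile8]-Ang II from human AT1R in HEK-293 membranes (1 h, 25° C; Tris/MgCl2/EDTA/BSA buffer, pH 7.4). Readout was filtration and scintillation counting, with non-specific binding set by 10 μM [Sar1]-Ang II. Values are % displacement at 1 μM and […], or IC50 from eight-point four-parameter fits.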
In general terms: The purpose of a counterscreen is to sort out artefacts and off-target activity.

The mark [1] stands for this setting: 125I-[Sar1, Ile8]-Ang II, compound at 1 μM, semi-quantitative score.
Setting [2] is: 125I-[Sar1, Ile8]-Ang II, compound at 10 μM, semi-quantitative score.

human AT2R fused to Cb23, sequence (P50052 whole entry, looked up, the tested form may be a part): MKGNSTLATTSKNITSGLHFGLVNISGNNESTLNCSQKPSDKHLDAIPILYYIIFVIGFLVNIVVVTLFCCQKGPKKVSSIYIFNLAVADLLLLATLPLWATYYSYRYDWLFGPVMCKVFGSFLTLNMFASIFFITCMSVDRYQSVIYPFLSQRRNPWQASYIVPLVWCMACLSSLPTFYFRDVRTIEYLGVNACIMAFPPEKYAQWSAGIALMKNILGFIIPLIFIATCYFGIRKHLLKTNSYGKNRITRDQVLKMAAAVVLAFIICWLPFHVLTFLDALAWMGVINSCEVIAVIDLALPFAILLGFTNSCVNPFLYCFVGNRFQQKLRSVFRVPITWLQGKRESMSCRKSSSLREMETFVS
human AT1R, sequence (P30556 whole entry): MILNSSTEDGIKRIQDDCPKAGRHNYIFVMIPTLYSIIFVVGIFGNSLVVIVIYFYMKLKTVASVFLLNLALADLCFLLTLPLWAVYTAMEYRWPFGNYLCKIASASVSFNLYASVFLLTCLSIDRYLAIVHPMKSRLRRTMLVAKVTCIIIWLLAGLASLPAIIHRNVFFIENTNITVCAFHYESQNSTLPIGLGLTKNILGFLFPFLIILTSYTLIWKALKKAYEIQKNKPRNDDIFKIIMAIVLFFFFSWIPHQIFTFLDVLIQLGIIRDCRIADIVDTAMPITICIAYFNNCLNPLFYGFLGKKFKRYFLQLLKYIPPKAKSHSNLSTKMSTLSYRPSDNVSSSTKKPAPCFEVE

By IC50 is commonly meant the midpoint of a concentration-inhibition curve. For the compound `CC(C)Cc1cc(F)c(-c2nn[nH]n2)c(N2CCN(Cc3ncc(F)cc3Cl)CC2)c1` [Compound A-206, 1-[(3-chloro-5-fluoro-2-pyridyl)-methyl]-4-[3-fluoro-5-isobutyl-2-(2H-tetrazol-5-yl)phen-yl]piperazine], the IC50 at human AT2R fused to Cb23 is 1080 nM. At human AT1R (setting [1]), the inhibition at 1 µM is less than 30%. Besides, the inhibition at 10 µM on human AT1R (setting [2]) is less than 30%.

On to `COc1cnc(CN2CCN(c3cc(CC(C)C)cc(F)c3-c3nn[nH]n3)CC2)cc1OC` [Compound A-207, 1-[(4,5-dimethoxy-2-pyridyl)methyl]-4-[3-fluoro-5-isobutyl-2-(2H-tetrazol-5-yl)phenyl]piperazine], for which the IC50 at human AT2R fused to Cb23 came to 1210 nM. Moreover, at human AT1R (setting [1]), the inhibition at 1 µM was less than 30%. Moreover, the inhibition at 10 µM on human AT1R (setting [2]) was less than 30%.

In the case of `COc1ccnc(CN2CCN(c3cc(CC(C)C)cc(F)c3-c3nn[nH]n3)CC2)c1C` [Compound A-208, 1-[3-fluoro-5-isobutyl-2-(2H-tetrazol-5-yl)phen-yl]-4-[(4-methoxy-3-methyl-2-pyrid-yl)methyl]piper-azine], the half-maximal inhibitory concentration (IC50) on human AT2R fused to Cb23 was found to be 1920 nM. The inhibition at 1 µM at human AT1R (setting [1]) is less than 30%. For the same compound, the inhibition at 10 µM at human AT1R (setting [2]) is less than 30%.

`CC(C)Cc1cc(F)c(-c2nn[nH]n2)c(N2CCN(Cc3ccc(C#N)cn3)CC2)c1` [Compound A-209, 6-[[4-[3-fluoro-5-isobutyl-2-(2H-tetrazol-5-yl)phen-yl]piperazin-1-yl]-methyl]pyridine-3-carbonitrile]: the IC50 on human AT2R fused to Cb23 is 3680 nM; at human AT1R it was 6.74 µM. For the same compound, the inhibition at 1 µM at human AT1R (setting [1]) is 30 to 50%. In addition, the inhibition at 10 µM on human AT1R (setting [2]) was greater than 50%.

As for `CC(C)Cc1cc(F)c(-c2nn[nH]n2)c(N2CCN(Cc3cc(Cl)c(F)cn3)CC2)c1` [Compound A-210, 1-[(4-chloro-5-fluoro-2-pyridyl)-methyl]-4-[3-fluoro-5-isobutyl-2-(2H-tetrazol-5-yl)phen-yl]piperazine], the IC50 on human AT2R fused to Cb23 stood at 2010 nM. Moreover, the inhibition at 1 µM on human AT1R (setting [1]) was less than 30%. Further, on human AT1R (setting [2]), the inhibition at 10 µM is less than 30%.

Consider `CC(C)Cc1cc(F)c(-c2nn[nH]n2)c(N2CCN(Cc3ncc(F)cc3F)CC2)c1` [Compound A-211, 1-[(3,5-difluoro-2-pyridyl)methyl]-4-[3-fluoro-5-isobutyl-2-(2H-tetrazol-5-yl)phenyl]piperazine], for which, on human AT2R fused to Cb23, the IC50 worked out at 1290 nM. Besides, the inhibition at 1 µM on human AT1R (setting [1]) is less than 30%. Moreover, the inhibition at 10 µM at human AT1R (setting [2]) is less than 30%.

For the compound `CC(C)Cc1ccc(-c2nn[nH]n2)c(N2CCN(C(C)c3cccnn3)CC2)c1` (stereo not drawn) [Compound A-212, 3-[1-[4-[5-isobutyl-2-(2H-tetrazol-5-yl)-phenyl]piperazin-1-yl]ethyl]pyrid-azine], the IC50 at human AT2R fused to Cb23 amounted to 434 nM. Moreover, the inhibition at 1 µM on human AT1R (setting [1]) was less than 30%. In addition, the inhibition at 10 µM at human AT1R (setting [2]) was less than 30%.

On to `CC(C)Cc1cc(F)c(-c2nn[nH]n2)c(N2CCN(C(=O)c3cccnn3)CC2)c1` [Compound A-213, [4-[3-fluoro-5-isobutyl-2-(2H-tetrazol-5-yl)phenyl]piperazin-1-yl]-pyridazin-3-yl-methanone], for which, at human AT2R fused to Cb23, the IC50 was 389 nM. Moreover, the inhibition at 1 µM at human AT1R (setting [1]) was less than 30%. Also, the inhibition at 10 µM at human AT1R (setting [2]) is less than 30%.

Consider `CC(C)Cc1cc(F)c(-c2nn[nH]n2)c(N2CCN(C(C)c3ccccn3)CC2)c1` (stereo not drawn) [Compound A-214, 1-[3-fluoro-5-isobutyl-2-(2H-tetrazol-5-yl)phenyl]-4-[1-(2-pyridyl)ethyl]piperazine], for which the IC50 at human AT2R fused to Cb23 was determined as 38.6 nM. For the same compound, the inhibition at 1 µM at human AT1R (setting [1]) was less than 30%. For the same compound, at human AT1R (setting [2]), the inhibition at 10 µM was less than 30%.

`CC(C)Cc1cc(F)c(-c2nn[nH]n2)c(N2CCN(C(=O)c3ccccn3)CC2)c1` [Compound A-215, [4-[3-fluoro-5-isobutyl-2-(2H-tetrazol-5-yl)phen-yl]piperazin-1-yl]-(2-pyridyl)meth-anone]: at human AT2R fused to Cb23, the IC50 came out at 300 nM. In addition, on human AT1R (setting [1]), the inhibition at 1 µM is less than 30%. Also, the inhibition at 10 µM on human AT1R (setting [2]) was less than 30%.

For `CC(C)Cc1cc(F)c(-c2nn[nH]n2)c(N2CCN(C(=O)c3ccccn3)[C@@H](C)C2)c1` [Compound A-216, [(2S)-4-[3-fluoro-5-isobutyl-2-(2H-tetrazol-5-yl)phen-yl]-2-methyl-piperazin-1-yl]-(2-pyridyl)methanone], the IC50 on human AT2R fused to Cb23 was determined as 247 nM. Further, the inhibition at 1 µM on human AT1R (setting [1]) was less than 30%. Moreover, the inhibition at 10 µM at human AT1R (setting [2]) was less than 30%.

Take `CC(C)Cc1cc(F)c(-c2nn[nH]n2)c(N2CCN(C(C)c3ccccn3)[C@@H](C)C2)c1` (stereo partly drawn) [Compound A-218, (2S)-4-[3-fluoro-5-isobutyl-2-(2H-tetrazol-5-yl)phenyl]-2-methyl-1-[1-(2-pyridyl)ethyl]piperazine]: at human AT2R fused to Cb23, the IC50 was determined as 122 nM. Further, the inhibition at 1 µM at human AT1R (setting [1]) was less than 30%. On human AT1R (setting [2]), the inhibition at 10 µM is less than 30%.

For `Cc1cnc(CN2CCN(c3c(-c4nn[nH]n4)ccc(CC(C)C)c3F)CC2)s1` [Compound A-219, 2-[[4-[2-fluoro-3-isobutyl-6-(2H-tetrazol-5-yl)phen-yl]piperazin-1-yl]-methyl]-5-methyl-thiazole], the IC50 at human AT2R fused to Cb23 stood at 681 nM; on human AT1R, 55.2 µM. The inhibition at 1 µM on human AT1R (setting [1]) was less than 30%. Also, on human AT1R (setting [2]), the inhibition at 10 µM is less than 30%.

Regarding `Cc1cnc(CN2CCN(c3cc(CC(C)C)cc(F)c3-c3nn[nH]n3)CC2)s1` [Compound A-220, 2-[[4-[3-fluoro-5-isobutyl-2-(2H-tetrazol-5-yl)phen-yl]piperazin-1-yl]-methyl]-5-methyl-thiazole], the IC50 at human AT2R fused to Cb23 was 80.7 nM. In addition, on human AT1R (setting [1]), the inhibition at 1 µM is less than 30%. Further, at human AT1R (setting [2]), the inhibition at 10 µM is less than 30%.

In the case of `Cc1cnc(CN2CCN(c3cc(CC(C)C)cnc3-c3nn[nH]n3)CC2)s1` [Compound A-221, 2-((4-(5-isobutyl-2-(2H-tetrazol-5-yl)pyridin-3-yl)piperazin-1-yl)methyl)-5-methylthiazole], the IC50 on human AT2R fused to Cb23 is 2740 nM. The inhibition at 1 µM at human AT1R (setting [1]) was less than 30%. Moreover, the inhibition at 10 µM on human AT1R (setting [2]) is less than 30%.

Consider `Cc1cnc(CN2CCN(c3cc(CC(C)C)cc(F)c3-c3nn[nH]n3)CC2C)s1` (stereo not drawn) [Compound A-222, 2-[[4-[3-fluoro-5-isobutyl-2-(2H-tetrazol-5-yl)phenyl]-2-methyl-piperazin-1-yl]methyl]-5-methyl-thiazole], for which, at human AT2R fused to Cb23, the IC50 amounted to 9.47 nM. Moreover, the inhibition at 1 µM at human AT1R (setting [1]) was less than 30%. In addition, the inhibition at 10 µM at human AT1R (setting [2]) is less than 30%.

As for `Cc1cnc(CN2C(C)CN(c3cc(CC(C)C)cc(F)c3-c3nn[nH]n3)CC2C)s1` (stereo not drawn) [Compound A-224, 2-[[4-[3-fluoro-5-isobutyl-2-(2H-tetrazol-5-yl)phen-yl]-2,6-dimethyl-piperazin-1-yl]-methyl]-5-methyl-thiazole], the IC50 on human AT2R fused to Cb23 amounted to 92.2 nM. Moreover, the inhibition at 1 µM on human AT1R (setting [1]) was less than 30%. The inhibition at 10 µM on human AT1R (setting [2]) is less than 30%.

With `Cc1cnc(C(C)N2CCN(c3cc(CC(C)C)cc(F)c3-c3nn[nH]n3)CC2)s1` (stereo not drawn) [Compound A-225, 2-[1-[4-[3-fluoro-5-isobutyl-2-(2H-tetrazol-5-yl)phen-yl]piperazin-1-yl]-ethyl]-5-methyl-thiazole], the half-maximal inhibitory concentration (IC50) at human AT2R fused to Cb23 came out at 54.1 nM. The “% Displaced radioligand at 1 μM” value on human AT1R (setting [1]) was “* (* <30%)”. At human AT1R (setting [2]), the “% Displaced radioligand at 10 μM” value was “* (* <30%)”.

On to `Cc1cnc(C(C)N2CCN(c3cc(CC(C)C)cc(F)c3-c3nn[nH]n3)C[C@@H]2C)s1` (stereo partly drawn) [Compound A-226, 2-[1-[(2S)-4-[3-fluoro-5-isobutyl-2-(2H-tetrazol-5-yl)phenyl]-2-methyl-piperazin-1-yl]ethyl]-5-methyl-thiazole], for which the 50% inhibitory concentration (IC50) at human AT2R fused to Cb23 was found to be 37.2 nM. Besides, the inhibition at 1 µM at human AT1R (setting [1]) is less than 30%. Further, the inhibition at 10 µM at human AT1R (setting [2]) is less than 30%.

For the compound `CC(C)Cc1ccc(-c2nn[nH]n2)c(N2CCCN(Cc3cccnn3)CC2)c1` [Compound A-230, 1-[5-isobutyl-2-(2H-tetrazol-5-yl)-phenyl]-4-(pyrid-azin-3-ylmethyl)-1,4-diazepane], the IC50 on human AT2R fused to Cb23 stood at 1230 nM. Further, the inhibition at 1 µM at human AT1R (setting [1]) is less than 30%. In addition, on human AT1R (setting [2]), the inhibition at 10 µM was less than 30%.

Take `CC(C)Cc1cc(F)c(-c2nn[nH]n2)c(N2CCCN(Cc3cccnn3)CC2)c1` [Compound A-231, 1-[3-fluoro-5-isobutyl-2-(2H-tetrazol-5-yl)phenyl]-4-(pyridazin-3-ylmethyl)-1,4-diazepane]: the IC50 on human AT2R fused to Cb23 was 368 nM; at human AT1R, 18.9 µM. On human AT1R (setting [1]), the inhibition at 1 µM is less than 30%. In addition, the inhibition at 10 µM at human AT1R (setting [2]) lay within 30 to 50%.

As to `CC(C)Cc1ccc(-c2nn[nH]n2)c(N2CC3CN(Cc4cccnn4)CC3C2)c1` (stereo not drawn) [Compound A-232, 5-[5-isobutyl-2-(2H-tetrazol-5-yl)-phenyl]-2-(pyrid-azin-3-ylmethyl)-1,3,3a,4,6,6a-hexahydropyrrolo-[3,4-c]pyrrole], the IC50 on human AT2R fused to Cb23 was determined as 2670 nM. Besides, the inhibition at 1 µM at human AT1R (setting [1]) is less than 30%. Also, at human AT1R (setting [2]), the inhibition at 10 µM is less than 30%.

Take `CC(C)Cc1cc(F)c(-c2nn[nH]n2)c(N2CC3CN(Cc4cccnn4)CC3C2)c1` (stereo not drawn) [Compound A-233, 5-[3-fluoro-5-isobutyl-2-(2H-tetrazol-5-yl)phenyl]-2-(pyridazin-3-ylmethyl)-1,3,3a,4,6,6a-hexahydropyrrolo[3,4-c]pyrrole]: on human AT2R fused to Cb23, the concentration for half-maximal inhibition (IC50) is 1310 nM. Also, the inhibition at 1 µM at human AT1R (setting [1]) was less than 30%. The inhibition at 10 µM on human AT1R (setting [2]) was less than 30%.

For the origin of these results see US20240368133A1, “Compounds for the Treatment of Pain, in Particular, Neuropathic Pain, and/or Other Diseases or Disorders that are Associated with AT2R and/or AT2R Mediated Signaling” (Confo Therapeutics N.V., priority 2021, published 2024).
